Among the test systems are DU-145 prostate; EKVX NSCLC; HCC-2998 colon; HCT-15 colon; HS 578T breast; K-562 leukemia; LOX IMVI melanoma; M14 melanoma; MOLT-4 leukemia; NCI-H522 lung; NCI/ADR-RES ovarian; PC-3 prostate; SF-295 CNS; SK-MEL-5 melanoma; SN12C renal; SNB-75 CNS; U251 CNS; UACC-62 melanoma; SR leukemia.
Holding throughout (assay): inhibition of tumour cell growth, NCI panel, 48 h

Structures are written as SMILES.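 Grown in 96-well plates, cells were treated for 48 hours with each compound at five concentrations. Insufficient inhibition: endpoint recorded as highest concentration tested. Definition used: TGI = concentration required for complete inhibition of growth.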 Bounds are passed on as bounds.

Here are results for eight molecules from PubChem BioAssay (NCI).

As to `Cc1cc(C)c(S(=O)(=O)N(CCCCCCN)OCCCN)c(C)c1`, the TGI was 31.3 µM in the experiment on DU-145 prostate; 29.9 µM in the experiment on EKVX NSCLC; 32.6 µM with HCC-2998 colon; 32.5 µM in the experiment on HCT-15 colon; 30.2 µM in the experiment on HS 578T breast; greater than 100 µM with K-562 leukemia. Moreover, the TGI with LOX IMVI melanoma is 31.3 µM; in the experiment with M14 melanoma it was 44.9 µM; in the experiment with MOLT-4 leukemia, 34.4 µM; with NCI-H522 lung, 27.3 µM; in the experiment on NCI/ADR-RES ovarian it was greater than 100 µM; in the experiment on PC-3 prostate it was 28.1 µM. Also, the TGI with SF-295 CNS came to 34.8 µM; in the experiment on SK-MEL-5 melanoma it was 37.6 µM; in the experiment on SN12C renal, 37.2 µM; in the experiment with SNB-75 CNS, 22.8 µM; in the experiment on U251 CNS, 32.6 µM; in the experiment with UACC-62 melanoma, 40 µM.

Consider `COC(=O)/C(=N\N)C(C(=O)C(=O)Nc1cccc([N+](=O)[O-])c1)c1nc2ccc(C(=O)c3ccccc3)cc2[nH]c1=O` (configuration not stated), for which the TGI in the experiment with DU-145 prostate, with EKVX NSCLC, with HCC-2998 colon, in the experiment on HCT-15 colon, in the experiment with HS 578T breast and with LOX IMVI melanoma was greater than 100 µM throughout. Moreover, the TGI with M14 melanoma was greater than 100 µM; with MOLT-4 leukemia, 89.8 µM; with NCI-H522 lung, greater than 100 µM; in the experiment on NCI/ADR-RES ovarian it was greater than 100 µM; with PC-3 prostate, greater than 100 µM; with SF-295 CNS, greater than 100 µM. For the same molecule, the TGI in the experiment on SK-MEL-5 melanoma, in the experiment with SN12C renal, in the experiment with SNB-75 CNS, in the experiment with U251 CNS and in the experiment on UACC-62 melanoma was greater than 100 µM each time.

`CC(C)Oc1c(C2(c3ccccc3O)SCCCS2)c(=O)c1=O`: the TGI in the experiment with DU-145 prostate, in the experiment on EKVX NSCLC, with HCT-15 colon, in the experiment on HS 578T breast, in the experiment with LOX IMVI melanoma and in the experiment with M14 melanoma was greater than 100 µM in each case. Further, the TGI was greater than 100 µM in the experiment on MOLT-4 leukemia; 58.9 µM in the experiment with NCI-H522 lung; greater than 100 µM in the experiment with NCI/ADR-RES ovarian; greater than 100 µM in the experiment with PC-3 prostate; greater than 100 µM with SF-295 CNS; greater than 100 µM in the experiment on SK-MEL-5 melanoma. Also, the TGI in the experiment on SN12C renal, in the experiment with SNB-75 CNS, in the experiment with U251 CNS and in the experiment on UACC-62 melanoma was greater than 100 µM each time.

On to `CCNc1nc(N)c(C(=O)c2cccs2)s1`, for which the TGI with DU-145 prostate is greater than 100 µM; in the experiment on EKVX NSCLC, 62.8 µM; with HCC-2998 colon, greater than 100 µM; in the experiment with HCT-15 colon, greater than 100 µM; with HS 578T breast, greater than 100 µM; with K-562 leukemia, greater than 100 µM. Moreover, the TGI in the experiment on LOX IMVI melanoma was greater than 100 µM; in the experiment with M14 melanoma, greater than 100 µM; in the experiment with MOLT-4 leukemia, 60.7 µM; in the experiment with NCI-H522 lung, greater than 100 µM; in the experiment on NCI/ADR-RES ovarian, greater than 100 µM; in the experiment with PC-3 prostate it was greater than 100 µM. Moreover, the TGI in the experiment with SF-295 CNS is greater than 100 µM; with SK-MEL-5 melanoma it was 44.8 µM; in the experiment with SN12C renal, greater than 100 µM; with SNB-75 CNS it was 36.6 µM; with U251 CNS it was greater than 100 µM; in the experiment with UACC-62 melanoma it was 51.8 µM.

`Brc1cccc(Nc2ncnc3sc4c(c23)CCC(Nc2cccc(Br)c2)C4)c1` (configuration not stated): the TGI in the experiment on DU-145 prostate, in the experiment on EKVX NSCLC, in the experiment with HCC-2998 colon, with HCT-15 colon, in the experiment on HS 578T breast and with K-562 leukemia was greater than 100 µM each time. Further, the TGI with LOX IMVI melanoma, in the experiment on M14 melanoma, in the experiment on MOLT-4 leukemia, in the experiment with NCI-H522 lung, in the experiment with NCI/ADR-RES ovarian and in the experiment with PC-3 prostate was greater than 100 µM each time. For the same molecule, the TGI with SF-295 CNS, in the experiment with SK-MEL-5 melanoma, in the experiment with SN12C renal, with SNB-75 CNS, with U251 CNS and with UACC-62 melanoma was greater than 100 µM in each case.

Turning to `CC(O)CCNC(=O)Nc1c(C(F)(F)F)cc(-c2ccccc2)[nH]c1=O` (configuration not stated), the TGI in the experiment with DU-145 prostate, in the experiment with EKVX NSCLC, in the experiment on HCC-2998 colon, in the experiment on HCT-15 colon, in the experiment with HS 578T breast and in the experiment on K-562 leukemia was greater than 100 µM each time. Further, the TGI in the experiment on LOX IMVI melanoma, in the experiment with M14 melanoma, in the experiment with MOLT-4 leukemia, in the experiment with NCI-H522 lung, in the experiment with NCI/ADR-RES ovarian and in the experiment with PC-3 prostate was greater than 100 µM in each case. Further, the TGI in the experiment on SF-295 CNS, in the experiment with SK-MEL-5 melanoma, in the experiment on SN12C renal, in the experiment with SNB-75 CNS, with U251 CNS and in the experiment on UACC-62 melanoma was greater than 100 µM each time.

Consider `O=S(Nc1ccccc1)c1ccc(-c2ccccc2)cc1` (configuration not stated), for which the TGI in the experiment with DU-145 prostate, in the experiment on EKVX NSCLC, in the experiment with HCC-2998 colon, in the experiment with HCT-15 colon, with HS 578T breast and in the experiment with K-562 leukemia was greater than 100 µM in each case. Further, the TGI with LOX IMVI melanoma, with MOLT-4 leukemia, with NCI-H522 lung, in the experiment on NCI/ADR-RES ovarian, in the experiment with SF-295 CNS and in the experiment on SK-MEL-5 melanoma was greater than 100 µM each time. For the same molecule, the TGI in the experiment on SN12C renal, in the experiment on SR leukemia, with U251 CNS and in the experiment with UACC-62 melanoma was greater than 100 µM in each case.

With `CC(NC1=NCCO1)c1cccs1` (configuration not stated), the TGI with DU-145 prostate was greater than 100 µM; in the experiment with EKVX NSCLC, greater than 100 µM; in the experiment on HCC-2998 colon, 31.5 µM; with HCT-15 colon it was greater than 100 µM; in the experiment with HS 578T breast, greater than 100 µM; in the experiment with K-562 leukemia, 59.6 µM. The TGI in the experiment with M14 melanoma is 35.7 µM; in the experiment on MOLT-4 leukemia, greater than 100 µM; in the experiment with NCI/ADR-RES ovarian, greater than 100 µM; in the experiment with SF-295 CNS, 31 µM; with SK-MEL-5 melanoma, 75.1 µM; in the experiment on SN12C renal it was greater than 100 µM. Further, the TGI in the experiment on SNB-75 CNS was greater than 100 µM; in the experiment on SR leukemia it was greater than 100 µM; in the experiment on U251 CNS it was 39.6 µM; with UACC-62 melanoma it was 37.3 µM.
